Data: paper PMC5715787, “Structural basis for antibody recognition of the NANP repeats in Plasmodium falciparum circumsporozoite protein” (Proceedings of the National Academy of Sciences of the …, 2017)

How the values were obtained:
[1] = target: Fab317; assay: ITC affinity measurement of peptides to Fab317; assay type: binding, human; conditions: for Kd / No. of sites: ITC, 25 °C, Dulbecco's PBS, Fab317 9.7 μM in cell, single-site model
Protocol: (§1) ITC affinity measurements were performed using a MicroCal Auto-iTC200 instrument (GE Healthcare). […]
(§2) General. All peptides were ordered from Innopep Inc. with a 10-μg/mL solution of the Fab of interest in blocking buffer. The purity of >98% and contained chlorine counter ions. The pep- membrane was then washed three times for 5 min each in TBST tides have N-terminal acetylation and C-terminal amidation to buffer, after which it was incubated for 2 h with an anti-human eliminate charges at the peptide termini. Fab genes were codon Fab secondary antibody conjugated to HRP (Sigma-Aldrich) at a optimized, synthesized, and cloned into pHCMV3 vectors by 1:20,000 dilution in blocking buffer. […]
(§3) Antibodies 311 and 317 were selected forITC. A MicroCal Auto-iTC200 (GE Healthcare) was used to structural studies because of their functional activity, high avidity perform ITC measurements. Before the experiments, all proteins index, and similar heavy-chain germline genes. were extensively dialyzed against Dulbecco’s PBS (Thermo Evaluation of the Protective Activity of mAbs. mAbs (100 μg for Fischer). The peptides were placed in the syringe at a concentration Ab311 and 300 μg for Ab317 and Ab2A10) against the NANP of 122μM for Ac-NPNANPNA-NH2, 116 μM for Ac-repeats of P. falciparum CSP were administered to 7- to 8-wk-old NPNANPNANPNA-NH2,89μM for Ac-[…]- […]
(§4) C57BL/6 mice (five mice per group) by i.v. injection [in 200 μLof NH2, and 110 μM for Ac-DPNANPNVDPNA-NH2, whereas the […]
(§5) PBS (pH 7.4)]. The mice were challenged 5–10 min later by i.v. concentrations of Fab fragments in the cell were 10.3 and 9.7 μM injection with 2,000 P. berghei chimeric sporozoites expressing for Fab311 and Fab317, respectively. The Fab and peptide P. falciparum CSP (3D7 strain) generated as previously described concentrations were determined by UV absorbance at 280 nm (22). Forty hours later, livers were harvested, and RNA was and 205 nm. Molar extinction coefficients for the peptides were isolated to quantify the malaria-specific 18s rRNA levels by real- estimated using a previously published method (35). Experi-time PCR (34). Inhibition of parasite development was calcu- ments were carried out in triplicate at 25 °C, except for lated by comparing the parasite liver burdens of experimental Fab317 binding to Ac-[…]-NH2, which was […]
(§6) and naive control mice. The statistical analyses were done with done in duplicate, and consisted of 16 injections of 2.45 μL each, the Mann–Whitney U test. Data were plotted using GraphPad with injection duration of 4.9 s, inject io n interval of 180 s, and Prism 6.0 software. No samples were excluded from statistical reference power of 5 μCa l. Fi tt in g of the integrate d titrati on analyses. peaks was performed with Origin 7.0 software using a single-site binding model. The first data point and any outliers were Expression and Purification of Recombinant CSP. The rsCSP con- excluded from the fit. […]
(§7) Two 1-L NaCl, 2.7 mM KCl, pH 8.0) with a 5:1 molar ratio of (NPNA)3 cultures were inoculated the next day with 25 mL overnight peptide to Fab. Crystals were grown using sitting-drop vapor culture and were grown at 37 °C. When the optical density at diffusion with a well solution containing 0.1 M MES (pH 6.0), 600 nm reached a value of 1, the cultures were induced with 36% PEG400, 5% PEG3000 for the Fab311–peptide complex, 1 mM isopropyl β-D-1-thiogalactopyranoside for 6 h. The cells and 0.1 M sodium citrate (pH 4.0), 1 M lithium chloride, 20% then were harvested and lysed by microfluidization. The lysate PEG6000 for the Fab317–peptide complex. Crystals were grown was incubated overnight with Ni cOmplete resin (Roche) and at 298 K and typically appeared within 3 d. Fab311–peptide was eluted using a buffer containing 200 mM imidazole. Typi- crystals were cryo-cooled without additional cryoprotection, cally, 10 mg of protein was obtained per 2 L of culture. Samples while Fab317–peptide crystals were cryoprotected by soaking in […]

[2] = target: Fab311; assay: ITC affinity measurement of peptides to Fab311; assay type: binding, human; conditions: for Kd / No. of sites: ITC, 25 °C, Dulbecco's PBS, Fab311 10.3 μM in cell, peptide 89–122 μM in syringe, single-site model, average and SD of triplicate experiments; for affinity/Kd compared with the (NPNA)3 peptide: Fab311, ITC, change vs (NPNA)3
Protocol: as §1, §2, §3, §4, §5, §6, §7

[3] = peptide 110–122 μM in syringe, average and SD of triplicate experiments
[4] = peptide 89 μM in syringe, duplicate experiments

Row | Compound | Kd [1, 3] [nM] | No. of sites [1, 3] | Kd [2] [nM] | No. of sites [2] | affinity/Kd compared with the (NPNA)3 peptide [2] | Kd increase compared with (NPNA)3 ([1]; Fab317, ITC, vs (NPNA)3) [fold] | relative affinity (in words) ([1]; Fab317, ITC, NVDP-containing peptides, comparator not clearly stated) | Kd [1, 4] [nM] | No. of sites [1, 4]
1 | CC(=O)N[C@@H](CC(N)=O)C(=O)N1CCC[C@H]1C(=O)N[C@@H](CC(N)=O)C(=O)N[C@@H](C)C(=O)N[C@@H](CC(N)=O)C(=O)N1CCC[C@H]1C(=O)N[C@@H](CC(N)=O)C(=O)N[C@@H](C)C(=O)N[C@@H](CC(N)=O)C(=O)N1CCC[C@H]1C(=O)N[C@@H](CC(N)=O)C(=O)N[C@@H](C)C(N)=O [(NPNA)3, Ac-NPNANPNANPNA-NH2] | 78 ± 16 | 1.27 ± 0.02 | 305 ± 60 | 0.74 ± 0.02 | – | – | – | – | –
2 | Ac-DPNANPNVDPNA-NH2 [DPNANPNVDPNA, Ac-DPNANPNVDPNA-NH2] | 448 ± 68 | 1.64 ± 0.05 | 1370 ± 390 | 1.20 ± 0.03 | approximately fivefold lower affinity | – | – | – | –
3 | CC(=O)N[C@@H](CC(N)=O)C(=O)N1CCC[C@H]1C(=O)N[C@@H](CC(N)=O)C(=O)N[C@@H](C)C(=O)N[C@@H](CC(N)=O)C(=O)N1CCC[C@H]1C(=O)N[C@@H](CC(N)=O)C(=O)N[C@@H](C)C(N)=O [(NPNA)2, Ac-NPNANPNA-NH2] | 173 ± 8 | 1.41 ± 0.05 | 296 ± 19 | 1.50 ± 0.08 | almost identical to that of the (NPNA)3 peptide | 2.2 | – | – | –
4 | Ac-NPNVDPNANPNV-NH2 [NPNVDPNANPNV, Ac-NPNVDPNANPNV-NH2] | – | – | 1790 ± 189 | 1.24 ± 0.02 | approximately fivefold lower affinity | – | substantially lower | 12100 ± 2490 | 1.72 ± 0.13
